The numbers were not newly measured in patent publication US9134323B2, “Antibody that specifically binds to an epitope in the tureet region of a human Kir channel” (priority 2009, dated 2015), which cites them from elsewhere.

Data set [1] concerns the target T1, Kir2.1 wild-type channels (Homo sapiens, UniProt P63252).
T1 sequence (P63252 1-427): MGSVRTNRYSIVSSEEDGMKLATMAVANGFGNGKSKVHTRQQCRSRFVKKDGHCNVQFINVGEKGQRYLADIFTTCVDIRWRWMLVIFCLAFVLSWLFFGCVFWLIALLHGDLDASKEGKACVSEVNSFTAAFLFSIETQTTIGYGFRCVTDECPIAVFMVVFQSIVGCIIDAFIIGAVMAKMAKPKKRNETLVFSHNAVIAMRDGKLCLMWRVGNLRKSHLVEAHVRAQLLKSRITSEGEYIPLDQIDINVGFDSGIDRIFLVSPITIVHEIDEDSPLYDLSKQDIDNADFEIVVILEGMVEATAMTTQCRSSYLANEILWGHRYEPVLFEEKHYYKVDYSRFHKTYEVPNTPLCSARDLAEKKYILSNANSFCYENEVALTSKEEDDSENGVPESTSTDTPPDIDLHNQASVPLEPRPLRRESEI
Particulars: applied to the outside of cells expressing the wild-type channels; 10 mM.

Data set [2] deals with Kir2.1 channel, variable sequence mutated to be Kir3.4-like. To be noted: turret variable sequence mutated to be Kir3.4-like.
In the next data set the target is T2, Kir1.1 channels (Homo sapiens, UniProt P48048).
T2 sequence (P48048 1-391): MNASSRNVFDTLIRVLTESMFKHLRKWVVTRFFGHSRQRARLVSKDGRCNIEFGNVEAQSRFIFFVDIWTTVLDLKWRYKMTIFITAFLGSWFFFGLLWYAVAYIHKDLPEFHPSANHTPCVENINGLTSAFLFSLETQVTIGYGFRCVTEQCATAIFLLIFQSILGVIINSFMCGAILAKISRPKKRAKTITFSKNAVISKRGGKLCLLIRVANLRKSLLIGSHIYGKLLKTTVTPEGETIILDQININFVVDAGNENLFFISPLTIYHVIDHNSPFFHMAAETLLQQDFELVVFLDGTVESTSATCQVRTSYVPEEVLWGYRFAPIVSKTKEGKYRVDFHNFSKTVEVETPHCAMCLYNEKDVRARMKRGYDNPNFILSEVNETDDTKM

The next data set addresses T3, Kir3.4 channels (Homo sapiens, UniProt P48544+P48549).
T3 sequence (P48544 1-419): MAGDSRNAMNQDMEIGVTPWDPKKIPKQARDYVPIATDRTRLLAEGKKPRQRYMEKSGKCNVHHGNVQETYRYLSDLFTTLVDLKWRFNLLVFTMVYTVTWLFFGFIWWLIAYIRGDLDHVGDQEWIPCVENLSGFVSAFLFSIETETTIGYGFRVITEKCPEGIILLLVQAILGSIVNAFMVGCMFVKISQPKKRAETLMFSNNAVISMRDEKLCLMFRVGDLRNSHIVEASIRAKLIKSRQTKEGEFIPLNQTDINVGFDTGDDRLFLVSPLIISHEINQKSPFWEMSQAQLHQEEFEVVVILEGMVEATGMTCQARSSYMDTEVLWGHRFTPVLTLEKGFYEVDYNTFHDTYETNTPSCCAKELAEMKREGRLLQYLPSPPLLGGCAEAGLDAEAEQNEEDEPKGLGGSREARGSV
T3 sequence (P48549 1-501): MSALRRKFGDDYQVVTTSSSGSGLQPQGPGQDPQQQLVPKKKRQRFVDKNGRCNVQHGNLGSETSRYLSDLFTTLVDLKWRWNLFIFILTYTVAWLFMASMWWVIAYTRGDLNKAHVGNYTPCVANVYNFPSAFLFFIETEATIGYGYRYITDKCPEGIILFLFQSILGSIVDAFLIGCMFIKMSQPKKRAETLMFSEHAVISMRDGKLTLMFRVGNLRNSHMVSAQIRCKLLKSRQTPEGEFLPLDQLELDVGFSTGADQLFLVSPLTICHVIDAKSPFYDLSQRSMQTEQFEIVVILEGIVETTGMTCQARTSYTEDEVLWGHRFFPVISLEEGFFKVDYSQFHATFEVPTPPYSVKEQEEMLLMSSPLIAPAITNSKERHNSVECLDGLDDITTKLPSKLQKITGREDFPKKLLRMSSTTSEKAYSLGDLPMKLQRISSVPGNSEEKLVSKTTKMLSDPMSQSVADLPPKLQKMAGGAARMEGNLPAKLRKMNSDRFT

Where no end group is shown, it is not given here.

`O[C@H](CS)[C@H](O)CS` (racemic) [DTT, Dithiothreitol]: the effect on currents entry in data set [1] is given as “did not affect currents”.

For the compound `N[C@@H](CCC(=O)N[C@@H](CS)C(=O)NCC(=O)O)C(=O)O` [reduced glutathione], the effect on currents entry in data set [1] was “did not affect currents”.

As to “tertiapin (ALCNCNRIIIPHMCWKKCGKK; ends and bridges not checked; cysteine pairing not given here; UniProt P56587 1-21, looked up)”, in data set [2], the “sensitivity of mutated Kir2.1 channel to the toxin” value is on record as “becomes sensitive”. Moreover, in the data set with Kir1.1 channels, the “inhibition of Kir1.1 channels” value is “inhibits”. The “inhibition of Kir3.4 channels” value with Kir3.4 channels is “inhibits”.

δ-dendrotoxin: the “inhibition of Kir1.1 channels” value at Kir1.1 channels was “inhibits”. At Kir1.1 channels (blocked state, reduced rather than inhibited all the way), the “single channel conductance in the blocked state” value was “about 10%”.
